# Reference: patent publication US20180244611A1, “Modulators of the Cystic Fibrosis Transmembrane Conductance Regulator Protein and Methods of Use” (AbbVie S.à.r.l., priority 2017, published 2018)
# pEC50: −log10 of the molar value.
# What was measured:
# F508delCFTR [1] = target: T1, F508delCFTR (Homo sapiens, UniProt P13569, DEL508-508); test: Cell Surface Expression-Horse Radish Peroxidase (CSE-HRP) assay, test compound with co-corrector; type: cell-based; conditions: with 2 μM co-corrector; for Maximum % activity (with co-corrector): maximum at any tested concentration, normalized to positive control;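 as to Maximum % activity (with co-corrector): percent of 2 µM positive control corrector over DMSO; co-corrector is that same compound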
# T1 construct: expressed in transfected cells; host or cells: CFBE41o- human lung-derived epithelial cells (CFBE41o-F508delCFTR-HRP), doxycycline-inducible
# Procedure, shortened: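 Surface-expression read-out: luminol luminescence from an HRP tag in the fourth exofacial loop of F508delCFTR, in doxycycline-induced (0.5 μg/mL, 72 h) CFBE41o- cells. Compound plus 2 μM co-corrector added for 18-24 h at 33° C., 8-point 3-fold series up to 20 μM. EC50 from a sigmoidal fit with variable Hill slope, normalised to positive control, triplicate plates.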
# F508delCFTR [2] = target: T1, F508delCFTR; test: Cell Surface Expression-Horse Radish Peroxidase (CSE-HRP) assay, test compound without co-corrector; type: cell-based; conditions: for Emax: maximum at any tested concentration, normalized to positive control, without co-corrector; for pEC50: test compound without co-corrector;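 as to Emax: percent of on-plate 2 µM positive control corrector response over DMSO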
# Procedure, shortened: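 Compound without co-corrector was tested at eight 3-fold concentrations, top 20 μM, for 18-24 h at 33° C on doxycycline-induced (0.5 μg/mL, 72 h) CFBE41o- F508delCFTR-HRP cells. After DPBS washes, luminol luminescence gave % activity relative to on-plate positive control minus DMSO; EC50 came from triplicate-plate sigmoidal fitting.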
# T1 sequence (P13569 with tags, fused parts or gaps DEL508-508): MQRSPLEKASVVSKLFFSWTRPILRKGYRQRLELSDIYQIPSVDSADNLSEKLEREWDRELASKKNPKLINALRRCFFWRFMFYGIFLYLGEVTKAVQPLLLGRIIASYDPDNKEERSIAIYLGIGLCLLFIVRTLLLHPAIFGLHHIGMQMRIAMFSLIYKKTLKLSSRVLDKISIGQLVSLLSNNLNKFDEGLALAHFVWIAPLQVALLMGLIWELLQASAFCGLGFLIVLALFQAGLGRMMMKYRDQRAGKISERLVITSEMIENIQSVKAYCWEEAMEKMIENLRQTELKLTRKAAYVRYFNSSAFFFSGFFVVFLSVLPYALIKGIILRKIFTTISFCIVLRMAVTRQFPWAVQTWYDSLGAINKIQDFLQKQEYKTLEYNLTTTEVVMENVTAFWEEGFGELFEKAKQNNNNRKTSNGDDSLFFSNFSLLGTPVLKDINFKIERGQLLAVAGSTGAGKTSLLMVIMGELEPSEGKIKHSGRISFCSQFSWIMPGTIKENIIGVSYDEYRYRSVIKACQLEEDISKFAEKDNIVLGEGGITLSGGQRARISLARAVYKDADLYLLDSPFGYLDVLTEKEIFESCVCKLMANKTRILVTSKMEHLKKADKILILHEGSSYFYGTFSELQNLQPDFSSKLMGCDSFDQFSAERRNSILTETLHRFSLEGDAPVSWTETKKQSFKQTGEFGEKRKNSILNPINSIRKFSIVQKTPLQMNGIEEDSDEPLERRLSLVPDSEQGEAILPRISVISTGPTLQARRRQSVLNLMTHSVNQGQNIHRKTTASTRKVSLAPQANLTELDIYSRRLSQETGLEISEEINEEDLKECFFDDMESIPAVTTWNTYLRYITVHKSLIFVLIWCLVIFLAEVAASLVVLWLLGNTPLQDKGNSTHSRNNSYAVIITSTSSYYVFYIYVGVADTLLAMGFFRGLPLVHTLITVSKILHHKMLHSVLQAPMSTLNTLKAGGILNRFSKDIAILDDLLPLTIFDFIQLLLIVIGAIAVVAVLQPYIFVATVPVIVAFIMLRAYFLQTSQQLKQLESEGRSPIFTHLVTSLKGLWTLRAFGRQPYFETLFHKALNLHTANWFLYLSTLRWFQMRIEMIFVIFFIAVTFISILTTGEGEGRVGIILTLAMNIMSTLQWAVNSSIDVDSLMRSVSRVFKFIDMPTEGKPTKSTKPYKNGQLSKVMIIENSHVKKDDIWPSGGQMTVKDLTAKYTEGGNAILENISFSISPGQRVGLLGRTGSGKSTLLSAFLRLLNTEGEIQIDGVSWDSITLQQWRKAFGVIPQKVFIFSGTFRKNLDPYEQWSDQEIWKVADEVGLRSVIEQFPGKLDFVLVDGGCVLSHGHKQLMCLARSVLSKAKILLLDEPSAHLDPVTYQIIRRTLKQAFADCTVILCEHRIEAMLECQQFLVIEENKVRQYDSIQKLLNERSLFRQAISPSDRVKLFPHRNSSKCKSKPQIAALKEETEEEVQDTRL
SMILES,Maximum % activity (with co-corrector) (F508delCFTR [1]),pEC50 (F508delCFTR [1]),Emax (F508delCFTR [2]),pEC50 (F508delCFTR [2])
O=C(NS(=O)(=O)c1cccc2ccccc12)C1CCc2ccccc21 (stereo not drawn) [II-68],++ (≥150 and <350),> 5.52,< 50%,5.00 to 5.52
O=C(NS(=O)(=O)c1cccc2ccccc12)C1(CCn2cccn2)CCc2c(Cl)cccc21 (stereo not drawn) [II-70],++ (≥150 and <350),> 5.52,50 to 150%,> 5.52
CCC1(C(=O)NS(=O)(=O)c2cccc3c2OCCO3)CCc2c(Cl)cccc21 (stereo not drawn) [II-74],+ (<150),≤ 5.00,< 50%,≤ 5.00
CCC1(C(=O)NS(=O)(=O)c2ccc(Br)c3ccccc23)CCc2c(Cl)cccc21 (stereo not drawn) [II-76],++ (≥150 and <350),> 5.52,< 50%,> 5.52
CCC1(C(=O)NS(=O)(=O)c2ccc(F)c3ccccc23)CCc2c(Cl)cccc21 (stereo not drawn) [II-77],++ (≥150 and <350),> 5.52,< 50%,> 5.52
CCC1(C(=O)NS(=O)(=O)c2cccc3c(Br)cccc23)CCc2c(Cl)cccc21 (stereo not drawn) [II-78],+++ (≥350),> 5.52,50 to 150%,> 5.52
CCC1(C(=O)NS(=O)(=O)c2cccc3c2CCCC3)CCc2c(Cl)cccc21 (stereo not drawn) [II-79],++ (≥150 and <350),> 5.52,50 to 150%,> 5.52
CCC1(C(=O)NS(=O)(=O)c2ccc(C3CCC3)c3ccccc23)CCc2c(C3CCC3)cccc21 (stereo not drawn) [II-82],++ (≥150 and <350),5.00 to 5.52,< 50%,≤ 5.00
CCC1(C(=O)NS(=O)(=O)c2cccc3c(C4CCC4)cccc23)CCc2c(C3CCC3)cccc21 (stereo not drawn) [II-83],++ (≥150 and <350),5.00 to 5.52,50 to 150%,5.00 to 5.52
COc1cccc(COc2ccc(Br)c3c2CCCC3C(=O)NS(=O)(=O)c2cccc3ccccc23)c1 (stereo not drawn) [II-85],++ (≥150 and <350),5.00 to 5.52,< 50%,5.00 to 5.52
CCOC(=O)COc1ccc(Br)c2c1CCCC2C(=O)NS(=O)(=O)c1cccc2ccccc12 (stereo not drawn) [II-87],++ (≥150 and <350),> 5.52,< 50%,> 5.52
O=C(NS(=O)(=O)c1cccc2ccccc12)C1CCCc2c(OC3CCCC3)ccc(Br)c21 (stereo not drawn) [II-88],+++ (≥350),> 5.52,50 to 150%,5.00 to 5.52
O=C(NS(=O)(=O)c1cccc2ccccc12)C1CCCc2c(OC3COC3)ccc(Br)c21 (stereo not drawn) [II-91],+++ (≥350),> 5.52,50 to 150%,5.00 to 5.52
CC(C)(O)COc1ccc(Br)c2c1CCCC2C(=O)NS(=O)(=O)c1cccc2ccccc12 (stereo not drawn) [II-93],+ (<150),> 5.52,< 50%,≤ 5.00
COc1cc2c(c(OC)c1)C(C(=O)NS(=O)(=O)c1cccc3ccccc13)CCC2 (stereo not drawn) [II-94],+++ (≥350),> 5.52,≥ 150%,5.00 to 5.52
COc1ccc(/C=C/c2ccccc2)c2c1CCCC2C(=O)NS(=O)(=O)c1cccc2ccccc12 (stereo not drawn) [II-96],+++ (≥350),> 5.52,≥ 150%,> 5.52
COc1ccc(-c2ccc(C)cc2F)c2c1CCCC2C(=O)NS(=O)(=O)c1cccc2ccccc12 (stereo not drawn) [II-98],+++ (≥350),> 5.52,≥ 150%,> 5.52
CCC1(C(=O)NS(=O)(=O)c2cccc(Br)c2C)CCc2c(Cl)cccc21 (stereo not drawn) [II-100],+++ (≥350),5.00 to 5.52,50 to 150%,5.00 to 5.52
CCC1(C(=O)NS(=O)(=O)c2cccc(F)c2C)CCc2c(Cl)cccc21 (stereo not drawn) [II-101],++ (≥150 and <350),> 5.52,< 50%,> 5.52
CCC1(C(=O)NS(=O)(=O)c2ccccc2COC)CCc2c(Cl)cccc21 (stereo not drawn) [II-102],++ (≥150 and <350),> 5.52,< 50%,5.00 to 5.52
CCC1(C(=O)NS(=O)(=O)c2cccc(F)c2F)CCc2c(Cl)cccc21 (stereo not drawn) [II-103],+ (<150),> 5.52,< 50%,≤ 5.00
CCC1(C(=O)NS(=O)(=O)c2ccccc2OCC(F)F)CCc2c(Cl)cccc21 (stereo not drawn) [II-104],++ (≥150 and <350),> 5.52,< 50%,> 5.52
CCC1(C(=O)NS(=O)(=O)c2cccc(Cl)c2F)CCc2c(Cl)cccc21 (stereo not drawn) [II-106],++ (≥150 and <350),> 5.52,< 50%,≤ 5.00
CCC1(C(=O)NS(=O)(=O)c2cccc3cnccc23)CCc2c(Cl)cccc21 (stereo not drawn) [II-113],+++ (≥350),> 5.52,≥ 150%,5.00 to 5.52
COc1cccc2c1C(C(=O)NS(=O)(=O)c1cccc3ccccc13)C2 (stereo not drawn) [II-114],+++ (≥350),5.00 to 5.52,≥ 150%,5.00 to 5.52

# Next, values leading:
Maximum % activity (with co-corrector) (F508delCFTR [1]),pEC50 (F508delCFTR [1]),Emax (F508delCFTR [2]),pEC50 (F508delCFTR [2]),SMILES
+++ (≥350),> 5.52,50 to 150%,> 5.52,O=C(NS(=O)(=O)c1cccc2ccccc12)C1(CC2CCOC2)CCc2c(Cl)cccc21 (stereo not drawn) [II-69]
++ (≥150 and <350),> 5.52,50 to 150%,> 5.52,COc1cc(CC2(C(=O)NS(=O)(=O)c3cccc4ccccc34)CCc3c(Cl)cccc32)ccn1 (stereo not drawn) [II-72]
+++ (≥350),> 5.52,≥ 150%,5.00 to 5.52,O=C(NS(=O)(=O)c1cccc2ccccc12)C1CCc2c(Br)cccc21 (stereo not drawn) [II-75]
++ (≥150 and <350),5.00 to 5.52,50 to 150%,5.00 to 5.52,O=C(NS(=O)(=O)c1cccc2ccccc12)C1CCCc2c(OCC3CCCCC3)ccc(Br)c21 (stereo not drawn) [II-84]
++ (≥150 and <350),5.00 to 5.52,< 50%,≤ 5.00,COc1cccc(COc2ccc(Br)c3c2CCCC3C(=O)N(Cc2cccc(OC)c2)S(=O)(=O)c2cccc3ccccc23)c1 (stereo not drawn) [II-86]
++ (≥150 and <350),5.00 to 5.52,50 to 150%,5.00 to 5.52,O=C(NS(=O)(=O)c1cccc2ccccc12)C1CCCc2c(OCc3ccccc3)ccc(Br)c21 (stereo not drawn) [II-89]
+ (<150),≤ 5.00,< 50%,≤ 5.00,O=C(C1CCCc2c(OCc3ccccc3)ccc(Br)c21)N(Cc1ccccc1)S(=O)(=O)c1cccc2ccccc12 (stereo not drawn) [II-90]
++ (≥150 and <350),> 5.52,< 50%,5.00 to 5.52,O=C(NS(=O)(=O)c1cccc2ccccc12)C1CCCc2c(OC3CCOCC3)ccc(Br)c21 (stereo not drawn) [II-92]
+++ (≥350),> 5.52,≥ 150%,> 5.52,COc1ccc(-c2cccc3c2OC(F)(F)O3)c2c1CCCC2C(=O)NS(=O)(=O)c1cccc2ccccc12 (stereo not drawn) [II-97]
+++ (≥350),> 5.52,≥ 150%,> 5.52,COc1ccc(-c2ccccc2Oc2ccccc2)c2c1CCCC2C(=O)NS(=O)(=O)c1cccc2ccccc12 (stereo not drawn) [II-99]
+ (<150),> 5.52,< 50%,≤ 5.00,CCC1(C(=O)NS(=O)(=O)c2cccc3nccnc23)CCc2c(Cl)cccc21 (stereo not drawn) [II-105]
++ (≥150 and <350),> 5.52,< 50%,> 5.52,CCC1(C(=O)NS(=O)(=O)c2cccc(Cl)c2Cl)CCc2c(Cl)cccc21 (stereo not drawn) [II-107]
+++ (≥350),> 5.52,50 to 150%,5.00 to 5.52,CCC1(C(=O)NS(=O)(=O)c2cn(C)c3ccccc23)CCc2c(Cl)cccc21 (stereo not drawn) [II-108]
+++ (≥350),5.00 to 5.52,≥ 150%,5.00 to 5.52,COc1ccc(CCC2OCCCO2)c2c1C(C(=O)NS(=O)(=O)c1cccc3ccccc13)CCC2 (stereo not drawn) [II-109]
+++ (≥350),> 5.52,≥ 150%,5.00 to 5.52,COc1ccc(C#N)c2c1C(C(=O)NS(=O)(=O)c1cccc3ccccc13)CC2 (stereo not drawn) [II-110]
+++ (≥350),> 5.52,≥ 150%,5.00 to 5.52,COc1ccc(C#N)c2c1C(C(=O)NS(=O)(=O)c1cccc3ccccc13)CCC2 (stereo not drawn) [II-111]
++ (≥150 and <350),> 5.52,< 50%,5.00 to 5.52,CCC1(C(=O)NS(=O)(=O)c2cccc(C3CCC3)c2C)CCc2c(Cl)cccc21 (stereo not drawn) [II-112]
